In patent US9029325B2, “Amylin analogues and pharmaceutical compositions thereof” (Novo Nordisk A/S, priority 2011, dated 2015):
Starred links: 1 amine or outer side, 2 acyl side, 3 side chain; linkers in the order of their positions; H or OH if unused. Positions of bridges follow the written chain, without caps; N, C: chain ends. Residues, ends and D or L forms follow the SMILES beside them. *: point of attachment. C20 diacid = O=C(O)CCCCCCCCCCCCCCCCCCC(=O)*; γGlu = O=C(O)[C@H](CCC(=O)[*:2])N[*:1]

Assay: Assay (III) ThT fibrillation assay for physical stability
Format: physicochemical
Conditions: for Th T pH 4.0 lag time (h): 37° C., orbital shaking 960 rpm; for ThT pH 4.0 lag time: Table 9
Text: Low physical stability of a polypeptide may lead to amyloid fibril formation, which is observed as well-ordered, thread-like macromolecular structures in the sample eventually resulting in gel formation. This has traditionally been measured by visual inspection of the sample. However, that kind of measurement is very subjective and depending on the observer. Therefore, the application of a small molecule indicator probe is much more advantageous. Thioflavin T (ThT) is such a probe and has a distinct fluorescence signature when binding to fibrils [Naiki et al. (1989) Anal. Biochem. 177, 244-249; LeVine (1999) Methods. Enzymol. […], 274-284].
The time course for fibril formation can be described by a sigmoidal curve with the following expression [Nielsen et al. (2001) Biochemistry 40, 6036-6046]:
[formula] Here, F is the ThT fluorescence at the time t. The constant t0 is the time needed to reach 50% of maximum fluorescence. The two important parameters describing fibril formation are the lag-time calculated by t0−2T and the apparent rate constant kapp=1/τ.
Few of those intermediates nucleate to form a template onto which further intermediates may assembly and the fibrillation proceeds. The lag-time corresponds to the interval in which the critical mass of nucleus is built up and the apparent rate constant is the rate with which the fibril itself is formed.
Samples were prepared freshly before each assay. Each sample composition is described in each example. The pH of the sample was adjusted to the desired value using appropriate amounts of concentrated NaOH and HClO4 or HCl. Thioflavin T was added to the samples from a stock solution in H2O to a final concentration of 1 μM.
Sample aliquots of 200 μl were placed in a 96 well microtiter plate (Packard OptiPlate™-96, white polystyrene). Usually, four or eight replica of each sample (corresponding to one test condition) were placed in one column of wells. The plate was sealed with Scotch Pad (Qiagen).
Incubation at given temperature, shaking and measurement of the ThT fluorescence emission were done in a Fluoroskan Ascent FL fluorescence platereader or Varioskan platereader (Thermo Labsystems). The temperature was adjusted to 37° C. The orbital shaking was adjusted to 960 rpm with an amplitude of 1 mm in all the presented data. Fluorescence measurement was done using excitation through a 444 nm filter and measurement of emission through a 485 nm filter.
Each run was initiated by incubating the plate at the assay temperature for 10 min. The plate was measured every 20 minutes for a desired period of time. Between each measurement, the plate was shaken and heated as described.
The measurement points were saved in Microsoft Excel format for further processing and curve drawing and fitting was performed using GraphPad Prism. The background emission from ThT in the absence of fibrils was negligible. The data points are typically a mean of four or eight samples and shown with standard deviation error bars. Only data obtained in the same experiment (i.e. samples on the same plate) are presented in the same graph ensuring a relative measure of fibrillation […].
The data set may be fitted to Eq. (1). However, since full sigmodial curves in this case are not always achieved during the measurement time, the degree of fibrillation is expressed as ThT fluorescence tabulated as the mean of the samples and shown with the standard deviation at various time points.
The polypeptide concentration in each of the tested formulations were measured both before application in the ThT fibrillation assay (“Initial”) and after completion of the ThT fibrillation (“After ThT assay”). Concentrations were determined by reverse HPLC methods using a pramlintide standard as a reference. Before measurement after completion 150 μl was collected from each of the replica and transferred to an Eppendorf tube. These were centrifuged at 30000 G for 40 mins. […]

Q: For `CC[C@H](C)[C@H](NC(=O)[C@@H]1CCCN1C(=O)CNC(=O)[C@H](Cc1ccccc1)NC(=O)[C@H](CC(N)=O)NC(=O)[C@H](CC(N)=O)NC(=O)[C@H](CO)NC(=O)[C@H](CO)NC(=O)[C@H](Cc1c[nH]cn1)NC(=O)[C@H](CCCNC(=N)N)NC(=O)[C@H](CC(C)C)NC(=O)[C@H](Cc1ccccc1)NC(=O)[C@H](CCC(=O)O)NC(=O)[C@H](C)NC(=O)[C@H](CC(C)C)NC(=O)[C@H](CCCNC(=N)N)NC(=O)[C@H](CCC(N)=O)NC(=O)[C@@H](NC(=O)[C@H](C)NC(=O)[C@@H]1CSSC[C@H](NC(=O)[C@H](CCCNC(=N)N)NC(=O)[C@H](CCC(=O)O)NC(=O)CC[C@H](NC(=O)CCCCCCCCCCCCCCCCCCC(=O)O)C(=O)O)C(=O)N[C@@H](CC(N)=O)C(=O)N[C@@H]([C@@H](C)O)C(=O)N[C@@H](C)C(=O)N[C@@H]([C@@H](C)O)C(=O)N1)[C@@H](C)O)C(=O)N[C@@H](CC(C)C)C(=O)N1CCC[C@H]1C(=O)N1CCC[C@H]1C(=O)N[C@H](C(=O)N[C@@H](CC(N)=O)C(=O)N[C@H](C(=O)NCC(=O)N[C@@H](CO)C(=O)N[C@@H](CC(N)=O)C(=O)N[C@H](C(=O)N1CCC[C@H]1C(N)=O)[C@@H](C)O)C(C)C)[C@@H](C)O` [Example 156, N-alpha-[(S)-4-Carboxy-4-(19-carboxynonadecanoylamino)butyryl]-Glu-[Arg1, Glu14, Arg17, Pro37]-pramlintide] ({C20 diacid-γGlu}-ERCNTATCATQRLAEFLRHSSNNFGPILPPTNVGSNTP-NH2; disulfide 3-8), which “Th T pH 4.0 lag time (h)” value is on record?
A: The value was over 45 h.

Q: What does the source list for `CC[C@H](C)[C@H](NC(=O)[C@@H]1CCCN1C(=O)CNC(=O)[C@H](Cc1ccccc1)NC(=O)[C@H](CC(N)=O)NC(=O)[C@H](CCC(N)=O)NC(=O)[C@H](CO)NC(=O)[C@H](CO)NC(=O)[C@H](Cc1c[nH]cn1)NC(=O)[C@H](CCCNC(=N)N)NC(=O)[C@H](CC(C)C)NC(=O)[C@H](Cc1ccccc1)NC(=O)[C@H](CCC(=O)O)NC(=O)[C@H](C)NC(=O)[C@H](CC(C)C)NC(=O)[C@H](CCCNC(=N)N)NC(=O)[C@H](CCC(N)=O)NC(=O)[C@@H](NC(=O)[C@H](C)NC(=O)[C@@H]1CSSC[C@H](NC(=O)[C@H](CCC(=O)O)NC(=O)[C@H](CCCNC(=N)N)NC(=O)[C@H](CCC(=O)O)NC(=O)CC[C@H](NC(=O)CCCCCCCCCCCCCCCCCCC(=O)O)C(=O)O)C(=O)N[C@@H](CC(N)=O)C(=O)N[C@@H]([C@@H](C)O)C(=O)N[C@@H](C)C(=O)N[C@@H]([C@@H](C)O)C(=O)N1)[C@@H](C)O)C(=O)N[C@@H](CC(C)C)C(=O)N1CCC[C@H]1C(=O)N1CCC[C@H]1C(=O)N[C@H](C(=O)N[C@@H](CC(N)=O)C(=O)N[C@H](C(=O)NCC(=O)N[C@@H](CO)C(=O)N[C@@H](CC(N)=O)C(=O)N[C@H](C(=O)N1CCC[C@H]1C(N)=O)[C@@H](C)O)C(C)C)[C@@H](C)O` [Example 161, N-alpha-[(S)-4-Carboxy-4-(19-carboxynonadecanoylamino)butyryl]-Glu-Arg-[Glu1, Glu14, Arg17, Gln21, Pro37]-pramlintide] ({C20 diacid-γGlu}-ERECNTATCATQRLAEFLRHSSQNFGPILPPTNVGSNTP-NH2; disulfide 4-9 (inferred); C-terminus assumed)?
A: Th T pH 4.0 lag time (h): >45 h; ThT pH 4.0 lag time: >45 hr

Q: For `CC[C@H](C)[C@H](NC(=O)[C@@H]1CCCN1C(=O)CNC(=O)[C@H](Cc1ccccc1)NC(=O)[C@H](CC(N)=O)NC(=O)[C@H](CCC(N)=O)NC(=O)[C@H](CO)NC(=O)[C@H](CO)NC(=O)[C@H](Cc1c[nH]cn1)NC(=O)[C@H](CCCNC(=N)N)NC(=O)[C@H](CC(C)C)NC(=O)[C@H](Cc1ccccc1)NC(=O)[C@H](CCC(=O)O)NC(=O)[C@H](C)NC(=O)[C@H](CC(C)C)NC(=O)[C@H](CCCNC(=N)N)NC(=O)[C@H](CCC(N)=O)NC(=O)[C@@H](NC(=O)[C@H](C)NC(=O)[C@@H]1CSSC[C@H](NC(=O)[C@H](CCC(=O)O)NC(=O)[C@H](CCCNC(=N)N)NC(=O)[C@H](CCC(=O)O)NC(=O)CC[C@H](NC(=O)CCCCCCCCCCCCCCCCCCC(=O)O)C(=O)O)C(=O)N[C@@H](CC(N)=O)C(=O)N[C@@H]([C@@H](C)O)C(=O)N[C@@H](C)C(=O)N[C@@H]([C@@H](C)O)C(=O)N1)[C@@H](C)O)C(=O)N[C@@H](CC(C)C)C(=O)N1CCC[C@H]1C(=O)N1CCC[C@H]1C(=O)N[C@H](C(=O)N[C@@H](CC(N)=O)C(=O)N[C@H](C(=O)NCC(=O)N[C@@H](CO)C(=O)N[C@@H](CCC(N)=O)C(=O)N[C@H](C(=O)N1CCC[C@H]1C(N)=O)[C@@H](C)O)C(C)C)[C@@H](C)O` [Example 162, N-alpha-[(S)-4-Carboxy-4-(19-carboxynonadecanoylamino)butyryl]-Glu-Arg-[Glu1, Glu14, Arg17, Gln21, Gln35, Pro37]-pramlintide] ({C20 diacid-γGlu}-ERECNTATCATQRLAEFLRHSSQNFGPILPPTNVGSQTP-NH2; disulfide 4-9), which “Th T pH 4.0 lag time (h)” value is on record?
A: The value was over 45 h.

Q: And the “ThT pH 4.0 lag time” value?
A: Its value is over 45 hr.

Q: For `CC[C@H](C)[C@H](NC(=O)[C@@H]1CCCN1C(=O)CNC(=O)[C@H](Cc1ccccc1)NC(=O)[C@H](CC(N)=O)NC(=O)[C@H](CCC(N)=O)NC(=O)[C@H](CO)NC(=O)[C@H](CO)NC(=O)[C@H](Cc1c[nH]cn1)NC(=O)[C@H](CCCNC(=N)N)NC(=O)[C@H](CC(C)C)NC(=O)[C@H](Cc1ccccc1)NC(=O)[C@H](CCC(=O)O)NC(=O)[C@H](C)NC(=O)[C@H](CC(C)C)NC(=O)[C@H](CCCNC(=N)N)NC(=O)[C@H](CCC(N)=O)NC(=O)[C@@H](NC(=O)[C@H](C)NC(=O)[C@@H]1CSSC[C@H](NC(=O)[C@H](CCC(=O)O)NC(=O)[C@H](CCCNC(=N)N)NC(=O)[C@H](CCC(=O)O)NC(=O)CC[C@H](NC(=O)CCCCCCCCCCCCCCCCCCC(=O)O)C(=O)O)C(=O)N[C@@H](CC(N)=O)C(=O)N[C@@H]([C@@H](C)O)C(=O)N[C@@H](C)C(=O)N[C@@H]([C@@H](C)O)C(=O)N1)[C@@H](C)O)C(=O)N[C@@H](CC(C)C)C(=O)N1CCC[C@H]1C(=O)N1CCC[C@H]1C(=O)N[C@H](C(=O)N[C@@H](CCC(N)=O)C(=O)N[C@H](C(=O)NCC(=O)N[C@@H](CO)C(=O)N[C@@H](CCC(N)=O)C(=O)N[C@H](C(=O)N1CCC[C@H]1C(N)=O)[C@@H](C)O)C(C)C)[C@@H](C)O` [Example 163, N-alpha-[(S)-4-Carboxy-4-(19-carboxynonadecanoylamino)butyryl]-Glu-Arg-[Glu1, Glu14, Arg17, Gln21, Gln31, Gln35, Pro37]-pramlintide] ({C20 diacid-γGlu}-ERECNTATCATQRLAEFLRHSSQNFGPILPPTQVGSQTP-NH2; disulfide 4-9), which “Th T pH 4.0 lag time (h)” value is on record?
A: The value was over 45 h.

Q: What about the “ThT pH 4.0 lag time” value of the same molecule?
A: Its value is over 45 hr.

Q: Which results are given for `CC[C@H](C)[C@H](NC(=O)[C@@H]1CCCN1C(=O)CNC(=O)[C@H](Cc1ccccc1)NC(=O)[C@H](CCC(N)=O)NC(=O)[C@H](CCC(N)=O)NC(=O)[C@H](CO)NC(=O)[C@H](CO)NC(=O)[C@H](Cc1c[nH]cn1)NC(=O)[C@H](CCCNC(=N)N)NC(=O)[C@H](CC(C)C)NC(=O)[C@H](Cc1ccccc1)NC(=O)[C@H](CCC(=O)O)NC(=O)[C@H](C)NC(=O)[C@H](CC(C)C)NC(=O)[C@H](CCCNC(=N)N)NC(=O)[C@H](CCC(N)=O)NC(=O)[C@@H](NC(=O)[C@H](C)NC(=O)[C@@H]1CSSC[C@H](NC(=O)[C@H](CCC(=O)O)NC(=O)[C@H](CCCNC(=N)N)NC(=O)[C@H](CCC(=O)O)NC(=O)CC[C@H](NC(=O)CCCCCCCCCCCCCCCCCCC(=O)O)C(=O)O)C(=O)N[C@@H](CC(N)=O)C(=O)N[C@@H]([C@@H](C)O)C(=O)N[C@@H](C)C(=O)N[C@@H]([C@@H](C)O)C(=O)N1)[C@@H](C)O)C(=O)N[C@@H](CC(C)C)C(=O)N1CCC[C@H]1C(=O)N1CCC[C@H]1C(=O)N[C@H](C(=O)N[C@@H](CCC(N)=O)C(=O)N[C@H](C(=O)NCC(=O)N[C@@H](CO)C(=O)N[C@@H](CCC(N)=O)C(=O)N[C@H](C(=O)N1CCC[C@H]1C(N)=O)[C@@H](C)O)C(C)C)[C@@H](C)O` [Example 164, N-alpha-[(S)-4-Carboxy-4-(19-carboxynonadecanoylamino)butyryl]-Glu-Arg-[Glu1, Glu14, Arg17, Gln21, Gln22, Gln31, Gln35, Pro37]-pramlintide] ({C20 diacid-γGlu}-ERECNTATCATQRLAEFLRHSSQQFGPILPPTQVGSQTP-NH2; disulfide 4-9 (inferred); C-terminus assumed)?
A: Th T pH 4.0 lag time (h): >45 h; ThT pH 4.0 lag time: >45 hr
